Results: US11002728B2, “Method for evaluating activity of G protein-coupled receptor (GPCR)” (RIKEN, priority 2017, dated 2021)
Values belong to the compound of their own block, whether it stands above or below them.

Columns and labels:
FFAR4 = molecular target: T1, FFAR4 (Homo sapiens, UniProt Q5NUL3); assay: Single-molecule imaging of GPCR diffusive dynamics (DAv) in HEK293 cells; assay type: cell-based; details: 100 nM ligand, mean ± standard error, n=20 cells, vehicle 0.083
T1 construct: host or cells: HEK293
T1 sequence (Q5NUL3 1-361): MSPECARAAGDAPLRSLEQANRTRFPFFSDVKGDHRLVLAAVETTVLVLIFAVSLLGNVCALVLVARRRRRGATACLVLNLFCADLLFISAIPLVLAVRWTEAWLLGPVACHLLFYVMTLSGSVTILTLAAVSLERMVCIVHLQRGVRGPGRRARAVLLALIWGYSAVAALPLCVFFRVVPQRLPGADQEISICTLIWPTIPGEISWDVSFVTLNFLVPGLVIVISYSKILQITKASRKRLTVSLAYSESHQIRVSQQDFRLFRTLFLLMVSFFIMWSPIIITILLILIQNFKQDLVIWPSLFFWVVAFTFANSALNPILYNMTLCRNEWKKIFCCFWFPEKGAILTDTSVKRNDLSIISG
Procedure: (§1) HEK293 cells were cultured in a DMEM/F12 (Gibco) medium added with 15 mM HEPES (pH 7.3), 29 mM NaHCO3, and 10% FBS at 37° C. in an environment containing 5% CO2. On the day before the observation, the HEK293 cells on a 60-mm dish (IWAKI) with a cover glass (Matsunami Glass Ind., Ltd.) were transfected with a plasmid DNA (pDNA) of HaloTag-fused mGluR3 using Lipofectamine 3000 (Invitrogen). A transfection reagent and pDNA (pDNA (0.1 μg), P3000 reagent (0.2 μL), Lipofectamine 3000 reagent (2.5 μL), Opti-MEM (120 μL, Gibco)) were mixed, and the mixture was then left to stand at room temperature for 15 minutes and was added to HEK293 cells on the 60-mm dish containing DMEM/F12 (3 mL). […] After culturing at 37° C. in an environment containing 5% CO2 for 3 hours, the medium was replaced with DMEM (3 mL, Sigma) not containing phenol red and containing 10% FBS. […] TMR-labeled mGluR3 on the cell membranes of the HEK293 cells were excited with total internal reflection illumination on an inverted fluorescence microscope (TE2000, Nikon Corporation), and single-molecule imaging was performed. […]

mGluR3 [1] = molecular target: T2, mGluR3 (Mus musculus, UniProt Q9QYS2); assay: [3H]-LY341495 binding experiment, HEK293 membrane fraction expressing mGluR3
Procedure: HEK293 cells cultured to about 40% confluence in a 100-mm dish were transfected with mGluR3 pDNA and an empty pCAG vector as a mock each at 10 μg/dish by a calcium phosphate method. After the transfection, the cells were cultured in DMEM/F12 medium containing 10% FBS for 48 hours and were then collected, followed by centrifugation. The precipitation was washed with 1 mL of PBS (pH 7.4). Centrifugation was further performed. The precipitation was placed in a 1.5-mL tube and was homogenized with a pellet mixer in buffer A (50 mM HEPES (pH 6.5), 140 mM NaCl) in which 50% sucrose was dissolved, followed by centrifugation to separate supernatant and precipitate. […]
A cell membrane fraction containing mGluR3 was resuspended in HBSS (containing 15 mM HEPES (pH 7.1) and not containing NaHCO3, Sigma) having the same composition as that used in the single-molecule measurement, and the binding of [^3H]-LY341495 to the membrane was measured at room temperature. […] Each dot was excised from the nitrocellulose membrane and was placed in a cocktail for a liquid scintillation counter (Ultima Gold, PerkinElmer Life Sciences, Inc.), and the binding amount of [^3H]-LY341495 was quantified with LS6500 (Beckman Coulter). […] Kd was calculated from fitting result by an expression obtained by replacing the EC50 in Expression 3 mentioned above with kd. […] The IC50 was calculated based on Expression 4.

mGluR3 [2] = molecular target: T2, mGluR3; assay: Single-molecule imaging of mGluR3 diffusive dynamics (MSD, DAv, VB-HMM diffusion states) in HEK293 cells; details: for IC50: IC50 of the LY379268 dependent change of DAv; for change of MSD of mGluR3: MSD-Δt plots, FIG. 1(c to e)
Procedure: A DNA sequence encoding HaloTag7 (Promega Corporation) was amplified by PCR and was fused to the C-terminal sequence of mouse mGluR3 using In-Fusion HD Cloning Kit (Clontech Laboratories, Inc.). In order to quantify the expression level of HaloTag-fused mGluR3 by Western blotting, the epitope sequence of a monoclonal antibody Rho 1D4 recognizing the C-terminus of bovine rhodopsin was added immediately after the HaloTag sequence. Complementary DNAs of mGluR3 were inserted into a pCAG-GS vector^21.
HEK293 cells were cultured in a DMEM/F12 (Gibco) medium added with 15 mM HEPES (pH 7.3), 29 mM NaHCO3, and 10% FBS at 37° C. in an environment containing 5% CO2. On the day before the observation, the HEK293 cells on a 60-mm dish (IWAKI) with a cover glass (Matsunami Glass Ind., Ltd.) were transfected with a plasmid DNA (pDNA) of HaloTag-fused mGluR3 using Lipofectamine 3000 (Invitrogen). A transfection reagent and pDNA (pDNA (0.1 μg), P3000 reagent (0.2 μL), Lipofectamine 3000 reagent (2.5 μL), Opti-MEM (120 μL, Gibco)) were mixed, and the mixture was then left to stand at room temperature for 15 minutes and was added to HEK293 cells on the 60-mm dish containing DMEM/F12 (3 mL). In two-color single-molecule measurement, pDNA (0.02 μg) of GFP-fused CLC was transfected together with HaloTag-fused mGluR3. After culturing at 37° C. in an environment containing 5% CO2 for 3 hours, the medium was replaced with DMEM (3 mL, Sigma) not containing phenol red and containing 10% FBS. After culturing overnight, the medium was replaced with 3 mL of DMEM containing 300 nM HaloTag TMR ligand (Promega Corporation) and not containing phenol red and FBS, followed by being left to stand at 37° C. in an environment containing 5% CO2 for 30 minutes to specifically stain the HaloTag-fused mGluR3 of the HEK293 cells. […] In single-molecule imaging, the cover glass was placed in a metal chamber (Invitrogen) and was washed with 400 μL of Hanks' balanced salt solution (HBSS (Sigma); containing 15 mM HPEPS (pH 7.1) and not containing NaHCO3) five times, followed by observation at room temperature (25° C.). TMR-labeled mGluR3 on the cell membranes of the HEK293 cells were excited with total internal reflection illumination on an inverted fluorescence microscope (TE2000, Nikon Corporation), and single-molecule imaging was performed. […] The fluorescences of TMR and GFP were wavelength dependently separated with dichroic mirror 59004b (Chroma) in a two-optical path branching system (M202J, Nikon Corporation), were allowed to pass through a band pass filter (GFP: ET525/50m, TMR: ET605/70m, Chroma), and were then photographed simultaneously by two EM-CCD cameras (ImagEM, Hamamatsu Photonics K.K.).

mGluR3 [3] = molecular target: T2, mGluR3; assay: [35S]-GTPγS binding experiment (G protein activation ability of mGluR3, purified Go protein); assay type: biochemical; set-up: expressed in transfected cells; host or cells: HEK293 (pCAG-GS vector)
Procedure: Each mixture was left to stand at 20° C. for 30 minutes. [^35S]-GTPγS was added to the mixture to start GDP/GTPγS exchange reaction. The composition except the ligand of the final mixture solution (20 μL) was 50 mM HEPES (pH 6.5), 140 mM NaCl, 5 mM MgCl2, 0.01% DM, 0.03% sodium cholate, 5 nM [^35S]-GTPγS, 500 nM GTPγS (cold), and 500 nM GDP. A reaction stop solution (200 μL, 20 mM Tris/Cl (pH 7.4), 100 mM NaCl, 25 mM MgCl2, 500 nM GTPγS (cold), and 500 nM GDP) was added to the mixture solution at 30 seconds after the addition of [^35S]-GTPγS to stop the incorporation of [^35S]-GTPγS into G protein, and immediately all the reaction solution was passed through a nitrocellulose membrane with the dot-blot apparatus to separate [^35S]-GTPγS bound to G protein. Subsequently, the nitrocellulose membrane was washed with buffer C (200 μL, 20 mM Tris/Cl (pH 7.4), 100 mM NaCl, and 25 mM MgCl2) three times and was dried for 1 hour. Each dot was excised from the nitrocellulose membrane and was placed in a cocktail for a liquid scintillation counter (Ultima Gold, PerkinElmer Life Sciences, Inc.), and the binding amount of [^35S]-GTPγS was quantified with LS6500 (Beckman Coulter).

mGluR3 [4] = molecular target: T2, mGluR3; assay: Two-color single-molecule imaging, colocalization of TMR-labeled mGluR3 and GFP-labeled CLC; assay type: cell-based; set-up: expressed in transfected cells; host or cells: HEK293 (pCAG-GS vector); details: active (100 μM LY379268) versus inactive state (100 nM LY341495)
Text: Colocalization of TMR-labeled mGluR3 and GFP-labeled CLC was defined as a track in which each bright spot was within 100 nm in the same frame. The positional accuracy of the bright spot tracking of TMR-labeled mGluR3 and GFP-labeled CLC was estimated to be 28 nm and 31 nm, respectively, from measurement of fixed samples. These values correspond to 1 SD of the displacement when fixed molecules were tracked. After image processing, the error between the positions of the same gold particle in two channels was estimated to be 18 nm. Accordingly, 100 nm corresponds to about 2 SD of the positional accuracy considering the total error. The time constant of colocalization was calculated by fitting the cumulative frequency distribution (FIG. 9(f)) by Expression 8.
The proportion of each component was calculated from the proportions of A1 and A2.

HRH1 = HRH1 (Homo sapiens, UniProt P35367); details: HRH1 in HEK293 cells, 1 μM ligand, mean ± standard error, n=20 cells; vehicle 0.064
HTR2A = HTR2A (Homo sapiens, UniProt P28223); assay: Single-molecule imaging of GPCR diffusive dynamics (DAv) in HEK293 cells; assay type: cell-based; details: 10 μM ligand, mean ± standard error, n=20 cells, vehicle 0.079
CXCR4 = molecular target: T3, CXCR4 (Homo sapiens, UniProt P61073); assay: as above; assay type: cell-based; details: 20 nM ligand, mean ± standard error, n=20 cells, vehicle 0.087
T3 construct: host or cells: HEK293
Procedure: as §1

F2R = F2R (Homo sapiens, UniProt P25116); details: F2R in HEK293 cells, 10 μM ligand, mean ± standard error, n=20 cells; vehicle 0.084
Chain of F2R (P25116 22-425): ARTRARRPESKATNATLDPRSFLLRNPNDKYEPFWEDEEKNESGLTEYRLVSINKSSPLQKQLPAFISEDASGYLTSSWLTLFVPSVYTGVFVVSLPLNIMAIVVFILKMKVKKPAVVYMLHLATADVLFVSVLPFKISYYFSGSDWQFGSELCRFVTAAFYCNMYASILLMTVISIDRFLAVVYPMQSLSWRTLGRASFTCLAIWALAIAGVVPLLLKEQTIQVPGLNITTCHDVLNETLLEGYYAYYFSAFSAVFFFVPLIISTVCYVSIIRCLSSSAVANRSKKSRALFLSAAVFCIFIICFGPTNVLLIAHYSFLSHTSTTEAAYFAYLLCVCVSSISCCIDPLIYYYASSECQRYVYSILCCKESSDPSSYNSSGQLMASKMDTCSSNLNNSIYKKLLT

T2 sequence (Q9QYS2 23-879): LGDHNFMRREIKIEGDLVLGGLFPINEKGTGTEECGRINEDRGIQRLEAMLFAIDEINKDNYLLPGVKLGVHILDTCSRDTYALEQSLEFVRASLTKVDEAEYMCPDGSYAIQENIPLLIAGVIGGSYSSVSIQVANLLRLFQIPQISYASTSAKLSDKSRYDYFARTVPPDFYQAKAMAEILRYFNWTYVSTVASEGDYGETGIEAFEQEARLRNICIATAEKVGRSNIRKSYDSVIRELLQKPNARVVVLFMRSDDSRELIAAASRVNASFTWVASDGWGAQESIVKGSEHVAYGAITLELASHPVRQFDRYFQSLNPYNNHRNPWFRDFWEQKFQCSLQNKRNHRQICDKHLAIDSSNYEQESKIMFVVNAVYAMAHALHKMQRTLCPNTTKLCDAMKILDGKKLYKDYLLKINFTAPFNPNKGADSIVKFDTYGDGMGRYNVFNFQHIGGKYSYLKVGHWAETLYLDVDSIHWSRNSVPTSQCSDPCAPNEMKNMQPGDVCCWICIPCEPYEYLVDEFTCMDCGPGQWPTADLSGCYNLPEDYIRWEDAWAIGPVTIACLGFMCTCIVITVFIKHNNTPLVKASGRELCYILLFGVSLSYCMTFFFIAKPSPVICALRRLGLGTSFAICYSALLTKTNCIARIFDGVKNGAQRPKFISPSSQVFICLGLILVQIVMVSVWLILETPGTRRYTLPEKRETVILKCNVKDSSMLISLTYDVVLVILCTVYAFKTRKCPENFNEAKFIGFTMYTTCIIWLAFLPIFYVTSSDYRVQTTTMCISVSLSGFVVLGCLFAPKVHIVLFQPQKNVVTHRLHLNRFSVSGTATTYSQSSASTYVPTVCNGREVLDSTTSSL
Chain of HRH1 (P35367 whole entry): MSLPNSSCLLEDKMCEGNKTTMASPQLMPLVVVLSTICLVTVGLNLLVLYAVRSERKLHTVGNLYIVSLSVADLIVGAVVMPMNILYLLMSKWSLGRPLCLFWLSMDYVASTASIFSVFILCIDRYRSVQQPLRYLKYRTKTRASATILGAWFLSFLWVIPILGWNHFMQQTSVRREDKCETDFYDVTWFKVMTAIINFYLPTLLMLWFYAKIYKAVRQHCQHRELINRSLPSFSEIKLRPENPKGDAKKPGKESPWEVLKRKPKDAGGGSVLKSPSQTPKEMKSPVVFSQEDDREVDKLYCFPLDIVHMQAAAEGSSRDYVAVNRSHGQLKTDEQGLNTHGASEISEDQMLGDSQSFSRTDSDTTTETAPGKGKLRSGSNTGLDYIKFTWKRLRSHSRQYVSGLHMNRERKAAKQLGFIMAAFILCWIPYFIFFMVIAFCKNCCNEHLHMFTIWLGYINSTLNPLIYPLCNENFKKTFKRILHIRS
Chain of HTR2A (P28223 whole entry): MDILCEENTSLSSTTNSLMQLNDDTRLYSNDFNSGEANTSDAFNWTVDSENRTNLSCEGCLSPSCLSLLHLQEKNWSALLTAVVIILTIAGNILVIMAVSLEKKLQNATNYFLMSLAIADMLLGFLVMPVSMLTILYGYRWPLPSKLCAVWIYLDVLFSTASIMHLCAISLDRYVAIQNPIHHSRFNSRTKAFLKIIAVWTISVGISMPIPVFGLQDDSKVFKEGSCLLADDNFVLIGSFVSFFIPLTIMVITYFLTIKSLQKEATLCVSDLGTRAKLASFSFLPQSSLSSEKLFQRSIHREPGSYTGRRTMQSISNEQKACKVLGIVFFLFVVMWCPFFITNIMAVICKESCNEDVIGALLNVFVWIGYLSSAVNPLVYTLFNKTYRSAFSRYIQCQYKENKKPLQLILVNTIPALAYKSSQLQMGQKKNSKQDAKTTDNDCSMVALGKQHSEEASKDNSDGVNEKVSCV
T3 sequence (P61073 whole entry): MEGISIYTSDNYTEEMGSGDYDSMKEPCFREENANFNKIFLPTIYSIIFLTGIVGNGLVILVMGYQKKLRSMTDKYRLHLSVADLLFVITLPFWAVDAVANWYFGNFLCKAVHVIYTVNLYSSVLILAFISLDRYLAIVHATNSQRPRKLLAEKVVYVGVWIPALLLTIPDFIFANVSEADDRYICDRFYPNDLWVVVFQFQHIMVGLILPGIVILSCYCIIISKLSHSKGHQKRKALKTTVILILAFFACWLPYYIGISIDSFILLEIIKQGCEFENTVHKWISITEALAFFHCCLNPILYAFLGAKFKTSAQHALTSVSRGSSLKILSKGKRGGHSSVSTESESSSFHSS

Compound: NCCc1c[nH]c2ccc(O)cc12 [serotonine]
- DAv, Ligand (HTR2A): 0.065 ± 0.0034 μm^2/s

Compound: CXCL12: chemokine, agonist used on CXCR4
- DAv, Ligand (CXCR4): 0.068 ± 0.0017 μm^2/s

Compound: MNI137
- influence on the binding affinity of LY379268 (mGluR3 [1]; 1 μM MNI137, competition with 100 nM [3H]-LY341495, FIG. 4(d)): did not influence the binding affinity of LY379268
- effect on LY379268 concentration-dependent change of DAv (mGluR3 [2]; 1 μM, presence of 100 nM LY341495, FIG. 4(b)): the LY379268 concentration-dependent decrease of DAv was suppressed
- change of MSD of mGluR3 (mGluR3 [2]; n=20 cells): the LY379268-dependent decrease of the MSD was suppressed
- effect on LY379268-dependent G protein activation ability (mGluR3 [3]; 1 μM MNI137, 100 nM LY341495 present, FIG. 4(f)): suppresses the LY379268-dependent increase of G protein activation ability

Compound: TRAP-6
- DAv, Ligand (F2R): 0.060 ± 0.0017 μm^2/s

Further lines, with some results ahead:

- DAv, Ligand (FFAR4): 0.048 ± 0.0073 μm^2/s
Compound: CC/C=C\C/C=C\C/C=C\C/C=C\C/C=C\C/C=C\CCC(=O)O [DHA]

- IC50 (mGluR3 [1]): 550 ± 80 nM
- IC50 (mGluR3 [2]; FIG. 4(a), absence of other ligands, n=20 cells): 1190 ± 20 nM
- IC50 (mGluR3 [2]; FIG. 4(b), presence of 100 nM LY341495, n=20 cells): 1030 ± 80 nM
- change of MSD of mGluR3 (mGluR3 [2]; n=20 cells): decreased depending on the concentration
- DAv, Ligand (mGluR3 [2]; mGluR3 in HEK293 cells, 100 μM ligand, mean ± standard error, n=20 cells, vehicle 0.047): 0.039 ± 0.0018 μm^2/s
- EC50 (mGluR3 [3]; absence of other ligands, FIG. 4(e), n=3, read-out: EC50 of the LY379268-dependent increase of the G protein activation ability of mGluR3): 25 ± 2.9 nM
- increase in the colocalization probability of mGluR3 and CLC (mGluR3 [4]; FIG. 10(e)): about 1.6 fold
- increase of the Long-time constant of colocalization of mGluR3 and CLC (mGluR3 [4]; FIG. 10(g)): about two-fold
Compound: N[C@@]1(C(=O)O)CO[C@H]2[C@H](C(=O)O)[C@H]21 [LY379268]
- ligand-dependent change of the proportions of the diffusion states (VB-HMM) (mGluR3 [2]; concentration dependent, FIG. 5(c, d)): increases in the immobile and slow states and a decrease in the fast state

- DAv, Ligand (HRH1): 0.045 ± 0.0025 μm^2/s
Compound: NCCc1c[nH]cn1 [histamine]
